Data taken from patent EP0214303A1, “DISULFIDE COMPOUNDS AND ANTINEOPLASTIC AGENTS” (priority 1985, dated 1986).

Columns and labels:
peripheral leukocytes = assay: Effect on the peripheral leucocytes number (WBC4000); type: in vivo, ddY mice; conditions: statement in words on Table 2 (image); comparison with control compounds A, B, C, D where stated; intraperitoneal, 4 days after administration
Experimental: (4) Effect on the peripheral leucocytes number: • Sarcoma 180 solid tumor cells […] were subcutaneously implanted into the right axilla of each mouse (body weight 20 ±2 g) of a group consisting of 5 male mice (ddY strain). 24 hours after implantation, a test compound was intraperitoneally administered to each animal. 4 days after the administration, blood (each 0.02 ml) was collected from the suborbital plexus vein of each tumor-carrying animal. The collected sample of blood was dispersed in 9.98 ml of Cell-Kit Seven solution. One drop of saponin solution was added to the sample to dissolve erythrocytes and then a microcell counter was used to count the number of leucocytes. On graph paper, the number of leucocytes was indicated by an arithmetic scale on the longitudinal axis and the dose of the test compound was indicated by a logarithmic scale on the lateral axis. The relationship between the number of peripheral leucocytes and the dose of the test compound was plotted and the dose (i.e., WBC4000) corresponding to 4000 peripheral leucocytes/mm3 (about half the number of leucocytes of normal mice) was obtained.

[1] = pH 7

For COC12C(COC(N)=O)C3=C(C(=O)C(C)=C(NCCCCSSCC(O)CO)C3=O)N1CC1NC12 (stereo not drawn) [Compound 26, 7-N-[4-(2,3-dihydroxypropyldithio)butyl] mitomycin C], which “WBC4000 (dosage reducing the peripheral leukocytes to 4000/mm3)” value (peripheral leukocytes) is on record?
The value was “considerably increased”.

For COC12C(COC(N)=O)C3=C(C(=O)C(C)=C(NCCCCCCCCSSCCCCCCCCNC4=C(C)C(=O)C5=C(C4=O)C(COC(N)=O)C4(OC)C6NC6CN54)C3=O)N1CC1NC12 (stereo not drawn) [Compound 10, 7-N,7'-N'-(dithiodioctamethylene) dimitomycin C], which “solubility (result in words)” value [1] is on record?
Its value is “scarcely soluble in water”.

Which “WBC4000 (dosage reducing the peripheral leukocytes to 4000/mm3)” value (peripheral leukocytes) does the source give for COC12C(COC(N)=O)C3=C(C(=O)C(C)=C(NCCCCCCSSCCCCCCNC4=C(C)C(=O)C5=C(C4=O)C(COC(N)=O)C4(OC)C6NC6CN54)C3=O)N1CC1NC12 (stereo not drawn) [Compound 8, 7-N,7'-N'-(dithiodihexamethylene) dimitomycin C] here?
Its value is “considerably increased”.

With CO[C@@]12[C@H](COC(N)=O)C3=C(C(=O)C(C)=C(NCCCCSSC[C@H](N)C(=O)NCC(=O)O)C3=O)N1C[C@@H]1N[C@@H]12 [Compound 27] as the molecule, how does the solubility read?
Its solubility is greater than 39 mg/mL.

Which “WBC4000 (dosage reducing the peripheral leukocytes to 4000/mm3)” value (peripheral leukocytes) does the source give for COC12C(COC(N)=O)C3=C(C(=O)C(C)=C(NCCCSSCCCNC4=C(C)C(=O)C5=C(C4=O)C(COC(N)=O)C4(OC)C6NC6CN54)C3=O)N1CC1NC12 (stereo not drawn) [Compound 1, 7-N,7'-N'-(dithioditrimethylene) dimitomycin C] here?
Its value is “considerably increased”.

With COC12C(COC(N)=O)C3=C(C(=O)C(C)=C(NCCCCSSCCCCNC4=C(C)C(=O)C5=C(C4=O)C(COC(N)=O)C4(OC)C6NC6CN54)C3=O)N1CC1NC12 (stereo not drawn) [Compound 4, 7-N,7'-N'-(dithioditetramethylene) dimitomycin C] as the molecule, how does the “WBC4000 (dosage reducing the peripheral leukocytes to 4000/mm3)” value (peripheral leukocytes) read?
The value was “considerably increased”.
